# Legend:
# [1] = target: Beta-2 adrenergic receptor (Homo sapiens, UniProt P07550)
# [2] = target: Vasopressin V1a receptor (Homo sapiens, UniProt P37288)
# [3] = target: T1, Muscarinic acetylcholine receptor M2 (Homo sapiens, UniProt P08172); format: functional, cell-based
# T1 sequence (P08172 whole entry): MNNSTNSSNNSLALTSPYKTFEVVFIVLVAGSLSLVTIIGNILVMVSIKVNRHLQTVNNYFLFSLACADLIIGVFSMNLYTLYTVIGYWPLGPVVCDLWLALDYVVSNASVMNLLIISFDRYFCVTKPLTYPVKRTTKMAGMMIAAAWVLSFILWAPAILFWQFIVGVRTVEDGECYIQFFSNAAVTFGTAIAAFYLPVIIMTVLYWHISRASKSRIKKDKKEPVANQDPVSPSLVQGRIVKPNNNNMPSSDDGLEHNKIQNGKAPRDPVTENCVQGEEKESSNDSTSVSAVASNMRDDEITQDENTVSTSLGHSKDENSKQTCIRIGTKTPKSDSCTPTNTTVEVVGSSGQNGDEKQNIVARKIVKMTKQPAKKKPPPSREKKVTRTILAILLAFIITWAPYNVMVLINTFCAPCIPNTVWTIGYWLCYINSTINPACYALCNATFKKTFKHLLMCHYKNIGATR
# [4] = target: Gamma-aminobutyric acid receptor subunit alpha-1 (Rattus norvegicus, UniProt P62813)
# [5] = target: Growth hormone secretagogue receptor type 1 (Homo sapiens, UniProt Q92847)
# [6] = target: 5-hydroxytryptamine receptor 2B (Homo sapiens, UniProt P41595); format: functional, cell-based
# [7] = target: T2, Glucocorticoid receptor (Homo sapiens, UniProt P04150)
# T2 sequence (P04150 whole entry): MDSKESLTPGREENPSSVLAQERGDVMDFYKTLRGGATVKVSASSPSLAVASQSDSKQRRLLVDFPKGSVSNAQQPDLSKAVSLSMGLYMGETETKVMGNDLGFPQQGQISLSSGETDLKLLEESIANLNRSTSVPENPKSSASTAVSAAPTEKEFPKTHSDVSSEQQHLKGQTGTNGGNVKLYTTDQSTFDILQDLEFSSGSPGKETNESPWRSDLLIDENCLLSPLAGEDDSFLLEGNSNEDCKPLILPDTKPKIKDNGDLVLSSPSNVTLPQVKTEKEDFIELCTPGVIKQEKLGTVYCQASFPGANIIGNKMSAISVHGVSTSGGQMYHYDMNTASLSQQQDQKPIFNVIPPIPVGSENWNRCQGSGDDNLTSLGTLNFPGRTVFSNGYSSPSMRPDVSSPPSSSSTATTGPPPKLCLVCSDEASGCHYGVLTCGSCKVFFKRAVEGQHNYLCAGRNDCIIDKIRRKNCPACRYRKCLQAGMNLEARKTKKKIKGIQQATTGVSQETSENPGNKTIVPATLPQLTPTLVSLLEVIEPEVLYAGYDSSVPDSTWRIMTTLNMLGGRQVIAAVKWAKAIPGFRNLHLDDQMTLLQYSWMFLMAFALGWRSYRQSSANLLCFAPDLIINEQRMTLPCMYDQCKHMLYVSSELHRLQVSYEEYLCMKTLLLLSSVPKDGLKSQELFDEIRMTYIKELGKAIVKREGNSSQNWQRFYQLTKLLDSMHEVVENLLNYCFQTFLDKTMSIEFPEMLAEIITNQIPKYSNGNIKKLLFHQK
# [8] = target: T3, Equilibrative nucleoside transporter 1 (Homo sapiens, UniProt Q99808)
# T3 sequence (Q99808 whole entry): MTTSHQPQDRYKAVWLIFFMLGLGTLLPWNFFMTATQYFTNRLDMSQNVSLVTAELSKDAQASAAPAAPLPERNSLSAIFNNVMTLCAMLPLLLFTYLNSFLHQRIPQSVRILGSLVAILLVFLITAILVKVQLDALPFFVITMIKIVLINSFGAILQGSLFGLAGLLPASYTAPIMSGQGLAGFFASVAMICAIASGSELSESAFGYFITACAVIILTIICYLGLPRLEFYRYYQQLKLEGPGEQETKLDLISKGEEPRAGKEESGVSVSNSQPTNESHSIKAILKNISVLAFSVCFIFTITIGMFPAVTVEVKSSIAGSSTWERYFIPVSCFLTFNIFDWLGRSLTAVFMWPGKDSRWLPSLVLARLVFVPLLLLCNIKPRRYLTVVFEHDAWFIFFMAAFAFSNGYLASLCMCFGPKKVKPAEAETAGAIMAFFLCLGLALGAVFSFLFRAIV
# [9] = target: T4, Thromboxane A2 receptor (Homo sapiens, UniProt P21731)
# T4 sequence (P21731 whole entry): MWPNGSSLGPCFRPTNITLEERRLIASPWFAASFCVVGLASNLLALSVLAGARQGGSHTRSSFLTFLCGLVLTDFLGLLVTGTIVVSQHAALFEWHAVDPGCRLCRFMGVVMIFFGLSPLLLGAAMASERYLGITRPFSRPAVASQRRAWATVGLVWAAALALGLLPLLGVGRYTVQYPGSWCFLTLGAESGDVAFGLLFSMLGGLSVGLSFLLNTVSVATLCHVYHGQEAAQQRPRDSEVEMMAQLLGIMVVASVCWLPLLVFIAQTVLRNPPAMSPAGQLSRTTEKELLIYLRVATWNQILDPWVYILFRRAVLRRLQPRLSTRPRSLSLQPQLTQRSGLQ
# [10] = target: Sodium-dependent dopamine transporter (Homo sapiens, UniProt Q01959)
# [11] = target: Sodium-dependent noradrenaline transporter (Homo sapiens, UniProt P23975)
# Also: assay procedure not described here.
# Chain of Sodium-dependent dopamine transporter (Q01959 whole entry): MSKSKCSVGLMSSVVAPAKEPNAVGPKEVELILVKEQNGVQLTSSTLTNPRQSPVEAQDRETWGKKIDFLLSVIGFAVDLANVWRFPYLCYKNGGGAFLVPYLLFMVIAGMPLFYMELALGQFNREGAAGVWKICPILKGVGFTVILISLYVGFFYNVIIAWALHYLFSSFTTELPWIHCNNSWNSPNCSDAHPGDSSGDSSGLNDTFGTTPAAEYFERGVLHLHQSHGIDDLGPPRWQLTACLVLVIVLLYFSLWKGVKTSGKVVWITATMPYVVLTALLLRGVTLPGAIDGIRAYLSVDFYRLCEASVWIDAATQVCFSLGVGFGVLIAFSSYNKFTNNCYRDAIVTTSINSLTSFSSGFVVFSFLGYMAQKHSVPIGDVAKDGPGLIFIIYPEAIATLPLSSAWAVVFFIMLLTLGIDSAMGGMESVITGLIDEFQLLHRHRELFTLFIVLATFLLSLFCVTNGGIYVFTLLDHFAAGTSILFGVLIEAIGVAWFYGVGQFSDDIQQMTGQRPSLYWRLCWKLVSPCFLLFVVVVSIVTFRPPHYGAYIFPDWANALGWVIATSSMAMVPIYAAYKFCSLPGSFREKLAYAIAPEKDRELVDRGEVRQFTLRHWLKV
# Chain of 5-hydroxytryptamine receptor 2B (P41595 whole entry): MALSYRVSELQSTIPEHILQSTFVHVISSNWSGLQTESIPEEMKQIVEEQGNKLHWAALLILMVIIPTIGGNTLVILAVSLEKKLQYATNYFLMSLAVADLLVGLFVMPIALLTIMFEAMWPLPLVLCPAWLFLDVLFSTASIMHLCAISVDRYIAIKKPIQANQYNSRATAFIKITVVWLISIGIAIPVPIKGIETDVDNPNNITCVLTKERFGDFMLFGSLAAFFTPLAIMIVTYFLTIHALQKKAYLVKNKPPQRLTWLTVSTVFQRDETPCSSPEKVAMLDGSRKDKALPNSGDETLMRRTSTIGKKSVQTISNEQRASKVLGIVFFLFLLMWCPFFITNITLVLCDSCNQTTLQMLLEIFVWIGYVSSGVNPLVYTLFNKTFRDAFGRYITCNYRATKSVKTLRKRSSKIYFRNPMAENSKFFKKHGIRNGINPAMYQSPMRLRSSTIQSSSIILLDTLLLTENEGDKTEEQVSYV
# Chain of Beta-2 adrenergic receptor (P07550 whole entry): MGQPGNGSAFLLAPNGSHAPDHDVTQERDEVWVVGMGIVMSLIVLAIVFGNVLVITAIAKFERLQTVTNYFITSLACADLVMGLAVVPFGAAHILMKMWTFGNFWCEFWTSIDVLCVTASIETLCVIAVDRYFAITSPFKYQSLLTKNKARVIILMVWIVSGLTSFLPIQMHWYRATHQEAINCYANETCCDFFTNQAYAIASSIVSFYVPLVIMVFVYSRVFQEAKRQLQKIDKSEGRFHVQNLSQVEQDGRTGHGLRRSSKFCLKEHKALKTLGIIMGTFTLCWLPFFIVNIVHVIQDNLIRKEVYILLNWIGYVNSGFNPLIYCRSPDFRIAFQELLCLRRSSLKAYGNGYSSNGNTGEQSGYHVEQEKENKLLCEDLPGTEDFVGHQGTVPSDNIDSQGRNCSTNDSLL
# Chain of Vasopressin V1a receptor (P37288 whole entry): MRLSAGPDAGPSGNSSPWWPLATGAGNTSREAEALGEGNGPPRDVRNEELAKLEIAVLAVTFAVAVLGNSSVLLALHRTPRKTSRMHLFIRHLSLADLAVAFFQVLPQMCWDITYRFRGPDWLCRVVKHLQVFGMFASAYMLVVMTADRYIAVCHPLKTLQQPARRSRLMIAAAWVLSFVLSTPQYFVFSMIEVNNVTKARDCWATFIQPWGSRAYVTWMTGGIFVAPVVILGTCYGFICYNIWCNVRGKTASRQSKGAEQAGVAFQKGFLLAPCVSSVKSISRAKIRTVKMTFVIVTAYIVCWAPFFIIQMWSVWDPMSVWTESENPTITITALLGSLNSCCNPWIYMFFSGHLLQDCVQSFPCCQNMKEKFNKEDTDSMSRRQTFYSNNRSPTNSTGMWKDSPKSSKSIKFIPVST
# Chain of Gamma-aminobutyric acid receptor subunit alpha-1 (P62813 whole entry): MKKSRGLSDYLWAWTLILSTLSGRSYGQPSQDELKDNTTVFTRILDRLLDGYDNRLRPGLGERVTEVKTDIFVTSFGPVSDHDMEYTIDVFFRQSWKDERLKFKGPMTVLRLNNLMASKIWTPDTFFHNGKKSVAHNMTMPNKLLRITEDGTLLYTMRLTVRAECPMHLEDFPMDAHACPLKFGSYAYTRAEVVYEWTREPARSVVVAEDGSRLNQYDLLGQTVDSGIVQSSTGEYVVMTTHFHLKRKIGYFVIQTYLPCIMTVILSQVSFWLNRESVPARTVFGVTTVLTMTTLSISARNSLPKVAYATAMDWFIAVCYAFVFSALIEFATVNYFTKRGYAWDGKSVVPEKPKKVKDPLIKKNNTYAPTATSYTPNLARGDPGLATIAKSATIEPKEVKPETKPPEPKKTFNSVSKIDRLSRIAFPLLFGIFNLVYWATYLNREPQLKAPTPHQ
# Chain of Sodium-dependent noradrenaline transporter (P23975 whole entry): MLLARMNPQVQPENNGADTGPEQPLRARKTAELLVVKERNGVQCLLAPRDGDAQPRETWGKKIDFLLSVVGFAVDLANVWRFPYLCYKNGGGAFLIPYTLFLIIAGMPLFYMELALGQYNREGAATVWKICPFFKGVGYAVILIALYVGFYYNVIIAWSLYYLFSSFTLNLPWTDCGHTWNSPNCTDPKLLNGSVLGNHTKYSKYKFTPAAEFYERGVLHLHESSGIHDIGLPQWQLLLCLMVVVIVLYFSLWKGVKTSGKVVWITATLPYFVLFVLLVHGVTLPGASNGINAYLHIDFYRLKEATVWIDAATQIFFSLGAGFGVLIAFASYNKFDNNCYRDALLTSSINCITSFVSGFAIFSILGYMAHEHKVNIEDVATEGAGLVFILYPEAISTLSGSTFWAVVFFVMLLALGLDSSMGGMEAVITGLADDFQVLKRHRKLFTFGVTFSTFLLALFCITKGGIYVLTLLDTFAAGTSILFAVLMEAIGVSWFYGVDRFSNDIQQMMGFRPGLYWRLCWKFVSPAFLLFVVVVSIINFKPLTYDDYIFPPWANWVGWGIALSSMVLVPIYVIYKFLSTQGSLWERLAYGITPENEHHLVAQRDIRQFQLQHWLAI
# Chain of Growth hormone secretagogue receptor type 1 (Q92847 whole entry): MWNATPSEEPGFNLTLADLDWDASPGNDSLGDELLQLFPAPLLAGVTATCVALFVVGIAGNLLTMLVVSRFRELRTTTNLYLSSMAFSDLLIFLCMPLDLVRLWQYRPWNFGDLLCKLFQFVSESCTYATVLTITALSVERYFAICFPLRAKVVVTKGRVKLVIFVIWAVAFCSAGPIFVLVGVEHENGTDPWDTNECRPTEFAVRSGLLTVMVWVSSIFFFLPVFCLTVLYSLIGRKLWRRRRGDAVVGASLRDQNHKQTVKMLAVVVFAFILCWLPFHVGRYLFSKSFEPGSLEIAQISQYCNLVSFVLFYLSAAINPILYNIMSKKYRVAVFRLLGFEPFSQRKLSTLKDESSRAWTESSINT
Compound,AC50 [1] [µM],AC50 [2] [µM],AC50 [3] [µM],AC50 [4] [µM],AC50 [5] [µM],AC50 [6] [µM],AC50 [7] [µM],AC50 [8] [µM],AC50 [9] [µM],AC50 [10] [µM],AC50 [11] [µM]
CC(=O)c1ccc(S(=O)(=O)NC(=O)NC2CCCCC2)cc1 [ACETOHEXAMIDE],> 10,> 10,> 10,> 10,> 10,> 30,> 10,> 10,> 10,> 10,> 10
COc1cc(C)c(/C=C/C(C)=C/C=C/C(C)=C/C(=O)O)c(C)c1C [ACITRETIN],> 10,> 10,> 10,> 10,> 10,> 10,> 30,> 10,> 10,> 10,> 10
CCC1(CCC(C)C)C(=O)NC(=O)NC1=O [AMOBARBITAL],> 10,,> 10,> 10,> 10,> 10,,> 10,> 10,> 10,> 10
COc1ccc(C2C(=O)c3ccccc3C2=O)cc1 [ANISINDIONE],> 10,,> 10,> 10,> 10,> 10,> 30,> 10,> 10,> 10,> 10
O=C(O)c1ccc(NC(=O)[C@H](Cc2ccc(O)cc2)NC(=O)c2ccccc2)cc1 [BENTIROMIDE],> 10,> 10,> 10,> 10,> 10,> 10,,> 10,> 10,> 10,> 10
NS(=O)(=O)c1cc2c(cc1Cl)N=C(CSCc1ccccc1)NS2(=O)=O [BENZTHIAZIDE],> 10,> 10,> 10,> 10,> 10,> 10,> 30,> 10,> 10,> 10,> 10
CC(C)[C@@H](C)/C=C/[C@@H](C)[C@H]1CC[C@H]2/C(=C/C=C3\C[C@@H](O)CC[C@@H]3C)CCC[C@]12C [DIHYDROTACHYSTEROL],> 10,> 10,> 10,> 10,> 10,> 10,,> 10,> 10,> 10,> 10
CC(=O)[C@H]1CC[C@H]2[C@@H]3C[C@H](C)C4=CC(=O)CC[C@]4(C)[C@H]3[C@@H](O)C[C@]12C [MEDRYSONE],> 10,> 10,> 10,> 10,> 10,> 10,0.005,> 10,> 10,> 10,> 10
CCCC(C)(COC(N)=O)COC(N)=O [MEPROBAMATE],> 10,> 10,> 10,> 10,> 10,> 10,> 10,> 10,> 10,> 10,> 10
COc1ccc2cc(CCC(C)=O)ccc2c1 [NABUMETONE],> 10,,> 10,> 10,> 10,> 10,> 10,> 30,> 10,7.8,20
O=C(c1cc(Cc2n[nH]c(=O)c3ccccc23)ccc1F)N1CCN(C(=O)C2CC2)CC1 [OLAPARIB],> 30,> 30,> 10,> 10,> 30,> 10,> 30,> 30,> 30,> 30,> 30
CO[C@H]1C[C@H](O[C@H]2CC[C@@]3(C)[C@H](CC[C@@H]4[C@@H]3CC[C@]3(C)[C@@H](C5=CC(=O)OC5)[C@@H](OC(C)=O)C[C@]43O)C2)O[C@@H](C)[C@@H]1O [OLEANDRIN],,,> 30,> 30,,,,,,,
NC(=O)NC(=O)Cc1ccccc1 [PHENACEMIDE],> 10,,> 10,> 10,> 10,> 10,> 10,> 10,> 10,> 10,> 10
CCCN(CCC)S(=O)(=O)c1ccc(C(=O)O)cc1 [PROBENECID],> 10,,> 10,> 10,> 10,> 10,> 10,> 10,> 10,> 10,> 10
CCc1nc(N)nc(N)c1-c1ccc(Cl)cc1 [PYRIMETHAMINE],> 10,> 10,> 10,> 10,> 10,37,> 10,> 30,> 10,2.2,> 30
CC1=C(/C=C/C(C)=C/C=C/C(C)=C/CO)C(C)(C)CCC1 [RETINOL],> 10,> 10,> 10,> 10,> 10,> 10,,> 10,> 10,> 10,> 10
Cc1cc(C)nc(NS(=O)(=O)c2ccc(N)cc2)n1 [SULFAMETHAZINE],> 10,,> 10,> 10,> 10,> 10,> 10,> 10,> 10,> 10,> 10
CCCCCCCC(=O)CC[C@@H]1[C@@H](C/C=C\CCCC(=O)OC(C)C)[C@@H](O)C[C@H]1O [UNOPROSTONE ISOPROPYL],,,,,,> 30,,,,7.2,7.2
CC(c1cc2ccccc2s1)N(O)C(N)=O (stereo unspecified) [ZILEUTON],> 10,,> 10,> 10,> 10,> 10,> 30,> 10,> 10,> 10,> 10
